Data published in patent US11786503B2, “Pharmaceutical compositions and methods for countering chemotherapy induced cardiotoxicity” (Auransa Inc., priority 2016, dated 2023).

Tests used:
[1] = system: Human iPSC-derived cardiomyocytes; assay: contractility, beat rate by Pulse video, 3 days (Example 3); assay type: cell-based; settings: 1.25 μM doxorubicin, in the absence of myricetin, 72 hours
[2] = system: human induced pluripotent stem cell-derived cardiomyocytes (iPSC-CM); settings: human, 72 h, 1.25 μM
C57BL/16 mice = assay: acute anthracycline-induced cardiotoxicity model, echocardiography (Example 16); assay type: in vivo; settings: Doxorubicin 20 mg/kg single intraperitoneal injection, day 5 vs baseline
Excerpt: An acute anthracycline-induced cardiotoxicity model was established in 9-10 week old C57BL/16 mice obtained from The Jackson Laboratory. […] General health of the animals was monitored on a daily basis throughout the course of the study. […] Left ventricular (LV) M-mode images were obtained in the two-dimensional short axis view close to the papillary muscles. Tracings of endocardial tissue during systole and diastole were made off line.

[3] = system: cardiomyocytes differentiated from induced pluripotent stem cells; assay: electrophysiological activity with doxorubicin, active electrodes (Example 20); assay type: cell-based, human; settings: for average number of active electrodes: 30 hours
Description: Samples were either mock-treated with 0.1% DMSO, treated with 1 μM doxorubicin, or co-treated with 1 μM doxorubicin and various concentrations of vitexin (e.g., 11.6 μM, 37 μM, or 116 μM). Following treatment, the percentage of active electrodes in each sample was measured for 72 hours. Percentage of active electrodes was quantified and graphed in a time course (FIG. 28A). The average number of active electrodes per well was quantified and graphed at 30 hours after the treatment (FIG. 28B, n=6, standard deviation is shown as error bars).

TOPOIIβ mRNA expression = TOPOIIβ mRNA expression in cardiomyocytes; assay type: cell-based; settings: compound alone; DOX at 24 and 48 hours
TOPOIIα expression = assay: TOPOIIα mRNA expression in cardiomyocytes; assay type: cell-based; settings: DOX alone, over time
[4] = system: cardiomyocytes differentiated from induced pluripotent stem cells; assay: long-term mitochondrial health, TMRM, 7 days (Example 19); assay type: cell-based, human
[5] = system: Human iPSC-derived cardiomyocytes; assay: DOX-induced contractility dysfunction, Pulse video, 48 hours (Example 7); assay type: cell-based; settings: DOX (0.5 μM)
MDA-MB-231 cells [6] = assay: cells; settings: Homo sapiens, MDA-MB-231, 72 h, read-out: cell viability LC50 of doxorubicin
TOPOIIα = biological target: T1, TOPOIIα (Homo sapiens, UniProt P11388); assay: kDNA decatenation assay, TOPOIIα; assay type: biochemical;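 further: kDNA incubated with one unit of TOPOIIα at 37 °C for 30 min, decatenated product resolved on 1% agarose gel, inhibition from relative band intensity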
T1 construct: purchased Inspiralis
T1 sequence (P11388 whole entry): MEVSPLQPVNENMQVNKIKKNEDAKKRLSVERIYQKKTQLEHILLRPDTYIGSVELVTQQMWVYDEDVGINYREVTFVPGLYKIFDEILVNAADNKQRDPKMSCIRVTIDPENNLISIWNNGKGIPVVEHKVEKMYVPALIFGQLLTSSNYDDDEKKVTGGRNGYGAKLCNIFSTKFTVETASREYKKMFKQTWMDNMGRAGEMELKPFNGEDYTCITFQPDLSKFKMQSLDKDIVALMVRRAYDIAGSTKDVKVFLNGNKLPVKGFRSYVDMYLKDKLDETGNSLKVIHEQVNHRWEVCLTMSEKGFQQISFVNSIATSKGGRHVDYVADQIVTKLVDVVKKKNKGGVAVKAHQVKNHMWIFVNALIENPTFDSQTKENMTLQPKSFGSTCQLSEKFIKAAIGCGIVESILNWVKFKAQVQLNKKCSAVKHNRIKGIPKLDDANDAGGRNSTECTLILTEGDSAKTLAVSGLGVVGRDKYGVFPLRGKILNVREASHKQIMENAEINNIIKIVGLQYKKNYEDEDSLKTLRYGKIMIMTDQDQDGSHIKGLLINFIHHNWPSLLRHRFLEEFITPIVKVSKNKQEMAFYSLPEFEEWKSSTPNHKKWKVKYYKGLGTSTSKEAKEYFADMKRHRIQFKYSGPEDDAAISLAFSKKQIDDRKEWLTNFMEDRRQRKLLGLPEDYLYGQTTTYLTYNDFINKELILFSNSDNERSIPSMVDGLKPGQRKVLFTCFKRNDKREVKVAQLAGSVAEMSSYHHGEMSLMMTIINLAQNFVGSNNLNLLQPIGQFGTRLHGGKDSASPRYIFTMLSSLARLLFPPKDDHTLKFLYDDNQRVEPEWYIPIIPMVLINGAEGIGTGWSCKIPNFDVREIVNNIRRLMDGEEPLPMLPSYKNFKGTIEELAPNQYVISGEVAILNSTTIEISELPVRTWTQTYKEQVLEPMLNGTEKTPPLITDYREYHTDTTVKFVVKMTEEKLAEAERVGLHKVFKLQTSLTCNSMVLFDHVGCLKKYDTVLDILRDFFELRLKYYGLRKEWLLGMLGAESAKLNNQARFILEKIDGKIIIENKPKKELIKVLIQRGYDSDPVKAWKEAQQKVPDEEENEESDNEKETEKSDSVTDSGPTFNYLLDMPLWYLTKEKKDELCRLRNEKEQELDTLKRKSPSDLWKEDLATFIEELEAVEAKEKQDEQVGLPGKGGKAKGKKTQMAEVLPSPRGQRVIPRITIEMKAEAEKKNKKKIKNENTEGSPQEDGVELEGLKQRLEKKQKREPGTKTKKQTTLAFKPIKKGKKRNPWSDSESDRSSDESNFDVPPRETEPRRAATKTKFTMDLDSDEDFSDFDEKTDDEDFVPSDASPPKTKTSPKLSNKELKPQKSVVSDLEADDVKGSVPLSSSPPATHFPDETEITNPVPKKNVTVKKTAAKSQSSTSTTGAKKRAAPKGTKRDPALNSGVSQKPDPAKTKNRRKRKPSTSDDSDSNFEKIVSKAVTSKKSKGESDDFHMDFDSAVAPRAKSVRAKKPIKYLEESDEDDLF

TOPOIIβ = biological target: T2, TOPOIIβ (Homo sapiens, UniProt Q02880); assay: kDNA decatenation assay, TOPOIIβ; assay type: biochemical;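 further: kinetoplast DNA incubated with one unit of TOPOIIβ at 37 °C for 30 min, decatenated product resolved on 1% agarose gel, inhibition scored from relative band intensity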
T2 construct: purchased Inspiralis
T2 sequence (Q02880 whole entry): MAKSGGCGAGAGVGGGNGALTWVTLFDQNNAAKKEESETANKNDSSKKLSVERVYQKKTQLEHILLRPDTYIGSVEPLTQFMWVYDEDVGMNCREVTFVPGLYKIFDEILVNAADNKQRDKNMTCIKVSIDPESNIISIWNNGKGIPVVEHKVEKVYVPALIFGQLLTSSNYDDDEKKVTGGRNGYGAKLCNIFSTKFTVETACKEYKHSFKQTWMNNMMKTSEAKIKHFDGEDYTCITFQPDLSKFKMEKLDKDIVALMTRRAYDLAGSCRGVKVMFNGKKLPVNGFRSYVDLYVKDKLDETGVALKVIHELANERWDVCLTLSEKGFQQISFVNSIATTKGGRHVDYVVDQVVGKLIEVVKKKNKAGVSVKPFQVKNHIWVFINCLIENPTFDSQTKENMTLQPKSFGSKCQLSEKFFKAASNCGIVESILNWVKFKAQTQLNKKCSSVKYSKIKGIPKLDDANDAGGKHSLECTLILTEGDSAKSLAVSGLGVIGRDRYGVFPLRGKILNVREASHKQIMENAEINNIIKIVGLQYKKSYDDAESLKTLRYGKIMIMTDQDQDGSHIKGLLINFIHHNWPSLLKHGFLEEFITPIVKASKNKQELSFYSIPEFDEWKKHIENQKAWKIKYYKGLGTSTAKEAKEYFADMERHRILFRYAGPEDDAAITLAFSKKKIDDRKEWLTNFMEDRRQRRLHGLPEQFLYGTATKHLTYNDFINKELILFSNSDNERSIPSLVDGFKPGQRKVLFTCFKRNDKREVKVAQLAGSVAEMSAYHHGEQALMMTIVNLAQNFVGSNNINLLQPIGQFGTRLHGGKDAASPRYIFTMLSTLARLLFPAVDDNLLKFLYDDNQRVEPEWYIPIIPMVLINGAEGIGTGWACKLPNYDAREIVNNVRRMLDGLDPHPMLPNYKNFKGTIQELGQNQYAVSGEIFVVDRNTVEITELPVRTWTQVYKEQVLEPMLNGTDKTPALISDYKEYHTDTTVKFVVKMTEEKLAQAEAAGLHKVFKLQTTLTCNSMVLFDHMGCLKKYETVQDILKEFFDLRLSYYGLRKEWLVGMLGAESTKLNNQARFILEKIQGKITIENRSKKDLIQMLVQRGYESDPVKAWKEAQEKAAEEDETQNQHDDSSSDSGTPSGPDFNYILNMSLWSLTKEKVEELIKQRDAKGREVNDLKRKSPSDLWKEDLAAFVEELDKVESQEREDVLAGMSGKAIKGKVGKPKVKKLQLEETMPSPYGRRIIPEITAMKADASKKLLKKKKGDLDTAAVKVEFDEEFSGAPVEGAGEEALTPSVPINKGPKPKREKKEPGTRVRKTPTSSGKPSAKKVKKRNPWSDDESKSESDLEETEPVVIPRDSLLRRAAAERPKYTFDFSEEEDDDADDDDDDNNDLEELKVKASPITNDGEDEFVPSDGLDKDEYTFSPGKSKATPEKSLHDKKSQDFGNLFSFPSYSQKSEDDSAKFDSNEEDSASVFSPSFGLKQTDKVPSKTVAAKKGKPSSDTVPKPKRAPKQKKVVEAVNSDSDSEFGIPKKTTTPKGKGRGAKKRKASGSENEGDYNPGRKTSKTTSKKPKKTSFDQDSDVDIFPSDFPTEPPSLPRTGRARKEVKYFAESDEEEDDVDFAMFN

[7] = system: cardiomyocytes differentiated from induced pluripotent stem cells; assay: doxorubicin-induced mitochondrial toxicity, TMRM-negative cells, 48 hours (Example 17); assay type: cell-based, human; settings: 1 μM doxorubicin, KAE 17 μM, AMB 0.76 μM, MES 10 μM, NAC 50 μM, Dex 160 μM, VIT 115 μM
Description: Following treatment, the samples were incubated with a tetramethylrhodamine methyl ester (TMRM) dye to indicate mitochondrial health, and a second dye to identify cell nuclei.

cardiomyocytes = assay: cytotoxicity of myricetin analogs to cardiomyocytes (Table 1, Toxicity)
[8] = system: Doxorubicin treated human iPSC-derived cardiomyocytes; assay: iPSC-CM protection by myricetin analogs (Table 1); assay type: cell-based
A549 cells = assay: doxorubicin-mediated death of lung cancer cells, CellTiter-Glo (Example 22); assay type: cell-based; settings: co-treated with increasing concentrations of doxorubicin, 72 hours
Description: A549 cells (lung cancer) were cultured for 1 day before performing experiments. […] XLFit was used for curve fitting.

MDA-MB-231 cells [9] = settings: co-treated with increasing concentrations of doxorubicin, 72 hours
[10] = system: cardiomyocytes differentiated from induced pluripotent stem cells; assay: long term toxicity on electrophysiology, active electrodes (Example 24); assay type: cell-based; settings: various concentrations, at least 5 days
Description: Samples were either mock-treated with 0.1% DMSO, or treated with various concentrations of the indicated drug. Following treatment, the percentage of active electrodes in each sample was measured for at least 5 days. Percentage of active electrodes was quantified and graphed in a time course.

[11] = system: cardiomyocytes differentiated from induced pluripotent stem cells; assay: acute toxicity on electrophysiology, MEA beat period and field potential duration (Example 23); assay type: cell-based; settings: lower drug concentration, at least 20 minutes
Description: Samples were either mock-treated with 0.1% DMSO, or treated with increasing concentrations of the indicated drug for at least 20 minutes. Cardiomyocytes were treated with the hERG potassium channel blocker E4031 as a control. Following treatment, the beat period and field potential duration (FPD) were measured in each sample using the MEA.

[12] = system: cardiomyocytes differentiated from induced pluripotent stem cells; assay: doxorubicin-induced apoptosis, TUNEL dye, 48 hours (Example 18); assay type: cell-based, human; settings: 1 μM doxorubicin, VIT 115 μM, Dex 160 μM, AMB 0.76 μM, NAC 50 μM, KAE 17 μM, MES 10 μM
Description: Following treatment, the samples were incubated with a TUNEL dye to indicate apoptosis-positive cells, and a second dye to identify cell nuclei.

COc1cccc2c1C(=O)c1c(O)c3c(c(O)c1C2=O)C[C@@](O)(C(=O)CO)C[C@@H]3O[C@H]1C[C@H](N)[C@H](O)[C@H](C)O1 [doxorubicin, reference compound]
contraction [1]: completely inhibited contraction | reduction in the number of total cells, as compared to mock-treated control [2]: 62.6% | decrease of ejection fraction (EF) (C57BL/16 mice): 19% | decrease of fractional shortening (FS) (C57BL/16 mice): 15% | average number of active electrodes ([3]; 1 μM doxorubicin in the absence of vitexin): about 2 active electrodes | decrease in the number of active electrodes ([3]; 1 μM doxorubicin, in the absence of vitexin, 24 hours after drug treatment): ~50% | decrease in the number of active electrodes, relative to time zero ([3]; 1 μM doxorubicin, in the absence of vitexin, 30 hours after drug treatment): ~95% | TOPOIIβ mRNA expression (TOPOIIβ mRNA expression): significantly repressed | expression of TOPOIIα (TOPOIIα expression): slowly repressed | mitochondrial toxicity (decrease in TMRM-positive cells) vs mock-treated ([4]; 1 μM of doxorubicin): increase in mitochondrial toxicity | dysfunction in cardiomyocyte contraction [5]: reduction in beating, duration, and peak height | CC50 (MDA-MB-231 cells [6]): 530 nM

O=c1c(O)c(-c2ccc(O)cc2)oc2cc(O)cc(O)c12 [Compound 7, 3,5,7,4′-tetrahydroxyflavone]
TOPIIα Inhibition (TOPOIIα): − | TOPOIIα inhibition, in words (TOPOIIα; decatenation assay): did not exhibit any inhibitory effect | TOPIIβ Inhibition (TOPOIIβ): − | TOPOIIβ inhibition, in words (TOPOIIβ; decatenation assay): did not exhibit any inhibitory effect | decrease in mitochondrial toxicity, compared to doxorubicin without protective agent [7]: at least 60% | Toxicity (cardiomyocytes; * = cytotoxicity at 100 μM): − | toxic effects at concentrations less than 100 μM (cardiomyocytes; Table 1): did not show toxic effects | cytotoxicity, in words (cardiomyocytes; at 100 μM where stated, Table 1): without some level of cytotoxicity | maximum rescue rate [8]: < 50% | EC50 ([8]; Homo sapiens, iPSC-CM, read-out: iPSC-CM protection EC50): 26 µM | Emax ([8]; Homo sapiens, iPSC-CM, read-out: iPSC-CM protection Max Effect (%)): 46% | cardioprotection, in words ([8]; Table 1): moderate level of cardioprotection | difference in the percentage of cell death vs doxorubicin without protective agent (A549 cells): no significant difference | difference in the percentage of cell death vs doxorubicin without protective agent (MDA-MB-231 cells [9]): no significant difference | decrease in the number of active electrodes relative to the mock-treated sample [10]: no observable decrease

O=c1cc(-c2ccc(O)cc2)oc2c([C@@H]3O[C@H](CO)[C@@H](O)[C@H](O)[C@H]3O)c(O)cc(O)c12 [vitexin]
decrease in the number of active electrodes ([3]; 1 μM doxorubicin and 11.6 μM vitexin, 24 hours): ~50% | decrease in the number of active electrodes ([3]; 1 μM doxorubicin and 37 μM vitexin, 24 hours): ~25% | decrease in the number of active electrodes ([3]; 1 μM doxorubicin and 116 μM vitexin, 24 hours): ~0% | average number of active electrodes ([3]; 1 μM doxorubicin and 116 μM vitexin): about 10 active electrodes | difference in beat period or field potential duration vs control samples [11]: no appreciable difference | long term mitochondrial protection ([4]; doxorubicin and vitexin, compared to doxorubicin or doxorubicin and dexrazoxane): improved long term mitochondrial protection | decrease in apoptosis, compared to doxorubicin without protective agent [12]: at least 60% | difference in the percentage of cell death vs doxorubicin without protective agent (A549 cells): no significant difference | difference in the percentage of cell death vs doxorubicin without protective agent (MDA-MB-231 cells [9]): no significant difference | decrease in the number of active electrodes relative to the mock-treated sample [10]: no observable decrease
